Laboratory results published in US10705094B2, “TNF receptor signaling modulator assay” (UCB Biopharma SRL, priority 2015, dated 2020).

Legend:
[1] = system: TNFα stimulated neutrophil recruitment into the peritoneal cavity; test: Neutrophil recruitment in mice, compound given orally before i.p. hTNFα; format: in vivo, Balb/c mice
Procedure: In a further experiment, mice were treated with hTNFα ([…]) and the compound of formula (1) was administered orally (p.o.).
The compound of formula (1) was made into a suspension in 1% methylcellulose vehicle using a covaris machine.
An anti-human TNFα monoclonal antibody (anti-hTNFα, UCB) was also utilised as a positive control in this study.
Ten male Balb/c mice were used per group except in the group that received anti-hTNFα for which 4 mice were used.
All mice were killed by cervical dislocation two hours post-injection of hTNFα (t=2 h) and the peritoneal cavity was lavaged and neutrophil numbers measured as described above.

CD40L = biological target: T1, CD40L (Homo sapiens, UniProt P29965); test: Mass spectrometric analysis of CD40L trimer stabilisation; format: binding; settings: in the presence of DMSO
T1 sequence (P29965 113-261 limits assumed): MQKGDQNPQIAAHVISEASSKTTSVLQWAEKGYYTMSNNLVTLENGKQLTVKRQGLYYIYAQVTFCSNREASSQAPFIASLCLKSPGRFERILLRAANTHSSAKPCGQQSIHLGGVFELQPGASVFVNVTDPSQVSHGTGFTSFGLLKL
Description: Mass spectrometric analysis has shown that CD40L, which also forms homotrimers, is destabilised by DMSO, resulting in a reduced amount of the trimeric CD40L. The assay protocol used was the same as that described in Example 3 for TNFα, but using CD40L instead.

[2] = biological target: T2, TNFα binding to the TNF receptor (TNFR-ECD) (Homo sapiens, UniProt P01375); test: Meso Scale Discovery (MSD) assay of TNFα binding to plate-coated TNFR-ECD; settings: MSD assay, TNF 2 ng/ml, 5% DMSO; read-out: EC50 (enhanced binding of TNFα to immobilised ECD-TNFR)
T2 construct: purchased R&D Systems
T2 sequence (P01375 77-233 limits assumed): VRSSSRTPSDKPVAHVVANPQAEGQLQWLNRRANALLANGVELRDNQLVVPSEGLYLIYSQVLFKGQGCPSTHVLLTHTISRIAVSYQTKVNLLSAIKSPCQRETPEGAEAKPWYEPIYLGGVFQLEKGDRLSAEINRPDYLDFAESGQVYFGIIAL
Procedure: 384 well uncoated plates (standard binding) Meso Scale Discovery plates (MSD) were coated overnight with the extracellular domain of TNFR (TNFR-ECD) (10 μl, 1 ug/mL in PBS). To ensure even distribution plates were centrifuged at 1000 rpm for 2 minutes. The plates were then sealed and stored at +4° C. overnight.
The wells of the plates were then washed three times in 50 μl phosphate buffered saline pH 6.5 (PB) with 0.05% Tween 20 (wash buffer), and then blocked with 50 μl 2% BSA. The plates were then incubated at room temperature on a shaker (600 rpm) for 2 hours. After this incubation plates were washed (3×50 μl wash buffer per well).
During the blocking incubation, compounds of formulae (1) and (2) were pre-incubated with TNF (R&D Systems) prior to addition to the pre-blocked and washed MSD plates. For a single point assay as shown in FIG. 3A the compounds were assayed at a final concentration of 100 μM (5% final v/v DMSO).
Pre-diluted compounds of formulae (1) and (2) were added at a ratio of 1:1 to 4 ng/mL TNF (final concentration 2 ng/ml), and then incubated at room temperature on a shaker 600 rpm for 1 hour.
10 μl of pre-incubated mixtures of compound of formulae (1) or (2) with TNFα were added to the prepared MSD plate and incubated at room temperature on a shaker for 1 hour.
The plates were then washed with wash buffer (3×50 μl per well). Sulfo-tagged anti-TNF polyclonal antibody was then added to each well and the plates incubated for a further 1.5 hours at room temperature on a shaker.
The plates were then washed (3×50 μl wash buffer per well), followed by the addition of 50 μl MSD Read buffer T plus surfactant (diluted 1 in 2 in H2O) and read on a SECTOR Imager 6000.
For single point assays percentage inhibition was calculated using a control sample without compound.
For EC50s determination results were calculated by standard means using a 4 parameter logistic model (sigmoidal dose response model).

[3] = system: activation of NF-κB by IL-1β; test: HEK-293 NF-κB SEAP reporter gene assay, IL-1β counterscreen; format: cell-based; settings: Homo sapiens, HEK293; HEK-293 reporter cells, IL-1β 0.5 ng/ml
Procedure: (§1) Stimulation of HEK-293 cells by TNF-alpha leads to activation of the NF-kB pathway. The reporter cell line used to determine TNF alpha activity was purchased from Invivogen. HEK-Blue™ CD40L, is a stable transfectant expressing SEAP (secreted alkaline phosphatase) under the control of the IFN-beta minimal promoter fused to 5 NF-kB binding sites. Secretion of SEAP by these cells is stimulated in a concentration dependent manner by TNF-alpha (0.5 ng/ml), IL-1-beta (0.5 ng/ml) and an activating anti-human TNFR1 antibody (300 ng/ml).
(§2) Compounds were diluted from 10 mM DMSO stocks (final assay concentration 0.3%) to generate a 10 point 3 fold serial dilution curve (30,000 nM to 2 nM final concentration). They were mixed with stimulating ligand for 1 hour in a 384 well microtitre plate. Freshly thawed and washed cells were added to the compound/stimulus mixture and further incubated for 18 hours. SEAP activity was determined in the supernatant using the colorimetric substrate Quanti-Blue™ (Invivogen).
(§3) Percentage inhibitions for compound dilutions were calculated between a DMSO control and maximum inhibition (by excess control compound) and an IC50 calculated using xlfit (4 parameter logistic model) in Activity Base.
(§4) The specific activity of each compound against the TNF-alpha response was compared to that seen with the counterscreens (IL-1beta and anti-human TNFR1 antibody).

[4] = system: activation of NF-κB by activating anti-human TNFR1 antibody; test: HEK-293 NF-κB SEAP reporter gene assay, activating TNF-R1 antibody counterscreen; format: cell-based; settings: HEK293, HEK-293 reporter cells, antibody 300 ng/ml
Procedure: as §1, §2, §3, §4

[5] = system: activation of NF-κB by TNFα; test: HEK-293 NF-κB SEAP reporter gene assay, TNFα stimulus; format: cell-based; settings: Homo sapiens, HEK293; HEK-293 reporter cells, TNFα 0.5 ng/ml
Procedure: as §1
as §2, with “Freshly thawed and washed cells were added to the compound/stimulus mixture and further incubated for 18 hours.” left out
Percentage inhibitions for compound dilutions were calculated between a DMSO control and maximum inhibition (by excess control compound) and an IC50 calculated using xlfit (4 parameter logistic model) in Activity Base. […]
C87 was preincubated with TNFα for 1 hour prior to the addition to HEK-293 cells stably transfected with SEAP under the control of NFκB. […] The assay was incubated overnight before inhibition was measured compared to 100% blocking by a control compound. […]

Question: How did the “reduction of TNFα stimulated neutrophil recruitment into the peritoneal cavity” value ([1]; 30 mg/kg p.o. 30 minutes before hTNFα 0.03 μg/kg i.p.) turn out when `Cc1ccc(C)c(Cn2c(C(O)c3ccncc3)nc3ccccc32)c1` (centres unmarked) [Compound (1), [1-(2,5-Dimethylbenzyl)-1H-benzimidazol-2-yl](pyridin-4-yl)methanol] was run?
Answer: 49%

Question: What about the “reduction of TNFα stimulated neutrophil recruitment into the peritoneal cavity” value ([1]; 100 mg/kg p.o. 30 minutes before hTNFα 0.03 μg/kg i.p.) of the same compound?
Answer: 79%

Question: And the “stabilisation of trimeric CD40L” value (CD40L)?
Answer: stabilise trimeric CD40L

Question: And the EC50 [2]?
Answer: 4.6 µM

Question: With `Cc1ccc(C)c(Cn2c(C(O)c3ccncc3)nc3ccc(-c4cnn(C)c4)cc32)c1` (centres unmarked) [Compound (2), [1-(2,5-Dimethylbenzyl)-6-(1-methyl-1H-pyrazol-4-yl)-1H-benzimidazol-2-yl](pyridin-4-yl)methanol] as the compound, how does the IC50 [3] read?
Answer: > 30 µM

Question: What about the IC50 [4] of the same compound?
Answer: > 30 µM

Question: What about the EC50 [2] of the same compound?
Answer: 3.7 µM

Question: And the IC50 [5]?
Answer: 0.113 µM
